Test results reported in ChEMBL document CHEMBL5726588, “Chemically modified quinoline and quinolone derivatives useful as CB-1 inverse agonists” (2017).

Columns and labels:
Cannabinoid receptor 2 = Cannabinoid receptor 2 (Homo sapiens, UniProt P34972); assay: (§1) cAMP Assay : Cells plated the day prior to the assay in clear bottom plates were viewed on an inverse microscope to ensure confluency in the range of 60-75%. The following mixtures and buffer solutions were prepared: (a) Buffer 1: HBSS (Mediatech Cat#21-023-CV) with 5 mM HEPES ([…], Gibco BRL Cat#15630-056) and 0.1% BSA (7.5% stock, Invitrogen Cat#15260-037); (b) Buffer 2: 0.5 mM IBMX (200 mM stock in DMSO, Sigma 15879) in Buffer 1; (c) 1 μM cAMP Standard (50 μM stock, Perkin Elmer Cat# AD0262) diluted in Buffer 2 and serially diluted in Buffer 2, 12 doses @ ½ dilutions resulting in a dose range of 1 μM to 0.5 nM; (d) d2 labelled cAMP (CisBio HTRF Detection Kit Cat #62AM4PEB reconstituted with 6 mL d-H2O) diluted 1/20 with lysis buffer (CisBio HTRF Detection Kit Cat #62AM4PEB); (e) anti-cAMP (CisBio HTRF Detection Kit Cat # 62AM4PEB reconstituted with 5 mL d-H2O) diluted 1/20 with lysis buffer (CisBio HTRF Detection Kit Cat #62AM4PEB); and (f) Forskolin (Sigma Cat# F6886, 10 mM in DMSO) diluted first in DMSO to 1 mM and then to 1.5 μM in Buffer 2.
Cannabinoid receptor 2, sequence (P34972 whole entry): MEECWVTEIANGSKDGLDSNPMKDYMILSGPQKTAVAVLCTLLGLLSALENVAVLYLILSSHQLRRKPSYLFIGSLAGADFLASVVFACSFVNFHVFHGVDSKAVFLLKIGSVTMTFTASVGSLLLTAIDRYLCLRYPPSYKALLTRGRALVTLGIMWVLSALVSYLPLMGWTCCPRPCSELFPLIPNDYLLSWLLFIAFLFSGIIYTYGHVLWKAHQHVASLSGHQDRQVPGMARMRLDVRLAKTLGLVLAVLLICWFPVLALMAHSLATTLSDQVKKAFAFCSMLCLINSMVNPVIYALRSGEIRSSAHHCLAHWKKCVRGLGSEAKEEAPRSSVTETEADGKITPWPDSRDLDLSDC

Cannabinoid receptor 1 = Cannabinoid receptor 1 (Homo sapiens, UniProt P21554); assay: as §1
Cannabinoid receptor 1, sequence (P21554 whole entry): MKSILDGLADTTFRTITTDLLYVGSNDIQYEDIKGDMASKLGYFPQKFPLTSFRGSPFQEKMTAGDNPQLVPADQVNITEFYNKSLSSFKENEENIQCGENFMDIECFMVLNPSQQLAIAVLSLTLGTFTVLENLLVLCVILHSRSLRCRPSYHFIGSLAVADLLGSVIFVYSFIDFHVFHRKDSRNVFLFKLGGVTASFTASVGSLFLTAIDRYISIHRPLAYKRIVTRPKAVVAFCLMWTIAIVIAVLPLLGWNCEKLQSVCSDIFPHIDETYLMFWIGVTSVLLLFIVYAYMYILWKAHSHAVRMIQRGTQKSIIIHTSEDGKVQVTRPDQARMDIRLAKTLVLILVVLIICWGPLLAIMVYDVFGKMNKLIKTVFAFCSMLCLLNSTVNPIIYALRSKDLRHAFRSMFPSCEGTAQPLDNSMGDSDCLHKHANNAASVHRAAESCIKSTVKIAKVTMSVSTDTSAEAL

Compound	EC50 (Cannabinoid receptor 2)	EC50 (Cannabinoid receptor 1)
O=S(=O)(N1CCC(Nc2ccnc3c(OCCOCCOCCOCCOCCOCCOCCOCCOCCOCCO)cc(C(c4ccc(Cl)cc4)c4ccc(Cl)cc4)cc23)CC1)C(F)(F)F	1.9 µM	0.068 µM
CC(C)(C)OC(=O)CCOCCOCCOCCOCCOCCOCCOCCOCCOCCOCCOCCOCCOc1cc(C(c2ccc(Cl)cc2)c2ccc(Cl)cc2)cc2c(NC3CCN(S(=O)(=O)C(F)(F)F)CC3)ccnc12	2.25 µM	0.46 µM
COCCOCCOCCOCCOc1cc(NC2CCN(S(=O)(=O)C(F)(F)F)CC2)c2cc(C(c3ccc(Cl)cc3)c3ccc(Cl)cc3)ccc2n1	7.4 µM	0.056 µM
COCCOCCOCCOCCn1c(=O)c(N2CCN(c3ccccc3)CC2)cc2cc(C(c3ccc(Cl)cc3)c3ccc(Cl)cc3)ccc21	5.51 µM	0.35 µM
CC(C)(C)OC(=O)NCCOCCOCCOCCOCCOCCOCCOCCOCCOCCOCCOCCOc1cc(NC2CCN(S(=O)(=O)C(F)(F)F)CC2)c2cc(C(c3ccc(Cl)cc3)c3ccc(Cl)cc3)ccc2n1	> 10 µM	1.8 µM
COCCOCCOCCOCCOCCOCCOCCOc1cc(NC2CCN(S(=O)(=O)C(F)(F)F)CC2)c2cc(C(c3ccc(Cl)cc3)c3ccc(Cl)cc3)ccc2n1	5.57 µM	0.48 µM
NCCOCCOCCOCCOCCOCCOCCOCCOCCOCCOCCOCCOc1cc(NC2CCN(S(=O)(=O)C(F)(F)F)CC2)c2cc(C(c3ccc(Cl)cc3)c3ccc(Cl)cc3)ccc2n1	4.3 µM	0.036 µM
NNC(=O)CCOCCOCCOCCOCCOCCOCCOCCOCCOCCNC(=O)CCCCCOc1cc(NC2CCN(S(=O)(=O)C(F)(F)F)CC2)c2cc(C(c3ccc(Cl)cc3)c3ccc(Cl)cc3)ccc2n1	1.26 µM	0.033 µM
COCCOCCOCCOCCOCCOCCOCCn1c(=O)cc(NC2CCN(S(=O)(=O)C(F)(F)F)CC2)c2cc(C(c3ccc(Cl)cc3)c3ccc(Cl)cc3)ccc21	> 10 µM	4.91 µM
